# Measured values from the supplement of paper PMC10307832.
# Tests used:
# Assay in all cases: relative viability (nuclei count vs DMSO), 5 days (fraction); higher = more cells survive
# Ibrutinib + Decitabine = compound: C=CC(=O)N1CCC[C@@H](n2nc(-c3ccc(Oc4ccccc4)cc3)c3c(N)ncnc32)C1 [Ibrutinib] + Nc1ncn([C@H]2C[C@H](O)[C@@H](CO)O2)c(=O)n1 [Decitabine] (partner 2 µM)
# Procedure, shortened: (§1)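 The day after seeding in 1536-well plates, lung cancer cell lines were treated by pin tool with a single drug, or with a fixed anchor-drug dose together with five library-drug doses (not always all listed) in √10 steps. After 5 days, a combined fix-and-stain solution (final 0.05% Triton X-100, 1% formaldehyde, 1 ug/ml Hoechst) was added. Nuclei counted on 4× images gave relative viability as treated counts over vehicle counts, reported as the median of duplicate plates.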
# PAC-1 + Lapatinib = compound: C=CCc1cccc(/C=N/NC(=O)CN2CCN(Cc3ccccc3)CC2)c1O [PAC-1] + CS(=O)(=O)CCNCc1ccc(-c2ccc3ncnc(Nc4ccc(OCc5cccc(F)c5)c(Cl)c4)c3c2)o1 [Lapatinib] (partner 2 µM)
# Procedure, shortened: as §1
# Ibrutinib + Phenformin = compound: C=CC(=O)N1CCC[C@@H](n2nc(-c3ccc(Oc4ccccc4)cc3)c3c(N)ncnc32)C1 [Ibrutinib] + N=C(N)NC(=N)NCCc1ccccc1 [Phenformin] (partner 250 µM)
# Procedure, shortened: as §1
# BMX-IN-1 + Alpelisib = compound: C=CC(=O)Nc1cc(-n2c(=O)ccc3cnc4ccc(-c5ccc(NS(C)(=O)=O)cc5)cc4c32)ccc1C [BMX-IN-1] + Cc1nc(NC(=O)N2CCC[C@H]2C(N)=O)sc1-c1ccnc(C(C)(C)C(F)(F)F)c1 [Alpelisib] (partner 2 µM)
# Procedure, shortened: as §1
Cell Line,relative viability (Ibrutinib + Decitabine; first compound 0.01581 µM),relative viability (Ibrutinib + Decitabine; first compound 0.05 µM),relative viability (Ibrutinib + Decitabine; first compound 0.1581 µM),relative viability (Ibrutinib + Decitabine; first compound 0.5 µM),relative viability (PAC-1 + Lapatinib; first compound 0.02 µM),relative viability (PAC-1 + Lapatinib; first compound 0.06325 µM),relative viability (PAC-1 + Lapatinib; first compound 0.2 µM),relative viability (PAC-1 + Lapatinib; first compound 2 µM),relative viability (Ibrutinib + Phenformin; first compound 0.005 µM),relative viability (Ibrutinib + Phenformin; first compound 0.01581 µM),relative viability (Ibrutinib + Phenformin; first compound 0.05 µM),relative viability (Ibrutinib + Phenformin; first compound 0.1581 µM),relative viability (Ibrutinib + Phenformin; first compound 0.5 µM),relative viability (BMX-IN-1 + Alpelisib; first compound 0.02 µM),relative viability (BMX-IN-1 + Alpelisib; first compound 0.2 µM),relative viability (BMX-IN-1 + Alpelisib; first compound 0.6325 µM),relative viability (BMX-IN-1 + Alpelisib; first compound 2 µM),relative viability (Ibrutinib + Decitabine; first compound 0.005 µM)
UMC-11,0.588,0.452,0.596,0.789,0.994,0.987,0.978,1.07,0.29,0.312,0.316,0.337,0.362,1.16,1.28,1.08,0.98,–
NCI-H1755,0.716,0.704,0.713,0.7,0.987,1.03,1.02,1.05,0.667,0.624,0.65,0.627,0.665,1.01,1.23,1.06,0.965,0.739
NCI-H1666,0.782,0.666,0.663,0.632,0.613,0.608,0.911,0.663,0.597,0.59,0.547,0.561,0.571,1.03,1.02,1.13,1.08,0.569
NCI-H23,0.343,0.339,0.298,0.339,1.13,1.17,0.868,1.34,0.674,0.777,0.789,0.861,0.797,0.617,0.793,0.603,0.692,0.313
COR-L23,0.433,0.473,0.461,0.525,1.06,0.963,0.833,0.928,0.491,0.408,0.454,0.472,0.445,0.95,0.962,0.926,0.921,0.428
PC-14,0.202,0.217,0.168,0.22,0.324,0.315,0.275,0.321,0.589,0.512,0.429,0.357,0.174,1.08,1.03,0.981,0.983,0.241
LCLC-97TM1,0.226,0.236,0.205,0.208,–,0.796,0.796,0.954,0.452,0.457,0.449,0.504,0.411,0.283,0.222,0.244,0.294,0.251
HOP-62,–,0.22,0.249,0.231,0.876,0.987,1.03,1.22,0.759,0.621,0.696,0.724,0.804,0.813,0.918,0.926,0.914,0.242
NCI-H727,1.04,0.806,0.506,0.804,0.717,0.674,0.801,0.884,–,0.612,0.546,–,0.401,0.499,0.671,0.766,0.578,0.617
NCI-H1734,0.511,0.541,0.455,0.47,1.12,0.987,1.04,1.01,0.338,0.349,0.419,0.355,0.381,0.668,0.717,0.783,0.652,0.548
NCI-H1651,0.693,0.56,0.465,0.53,0.757,0.8,0.725,0.855,0.34,0.262,0.295,0.308,0.252,1.07,1.06,0.943,0.863,0.426
NCI-H2170,0.47,0.389,0.457,0.173,0.247,0.258,0.255,0.264,0.431,0.42,0.395,0.39,0.36,0.91,0.859,0.921,0.821,0.438
LK-2,0.244,0.261,0.217,0.251,0.77,1.04,0.884,0.932,–,0.529,0.396,0.357,0.282,1.75,1.43,1.04,0.993,0.19
NCI-H2009,0.373,0.372,0.46,0.415,0.93,0.318,0.855,0.9,0.558,0.476,0.518,0.476,0.499,1.05,1.33,1.25,1.18,0.375
NCI-H2347,0.609,0.658,0.575,0.535,0.947,0.885,0.859,0.892,–,0.447,0.332,0.294,0.239,1.25,1.07,1.16,0.974,0.65
NCI-H460,0.419,0.503,0.497,0.551,1.01,1.01,0.916,0.942,0.636,0.46,0.463,0.572,0.592,0.827,0.752,0.566,0.568,0.541
LC-2-ad,0.776,0.774,0.814,0.765,0.983,0.957,0.984,0.865,0.552,0.579,0.56,0.478,0.531,0.915,0.962,0.998,0.898,0.842
NCI-H596,1.1,1.88,0.936,0.942,1.04,1.03,1.01,1.05,–,0.635,0.704,0.607,0.635,0.511,0.535,0.544,0.54,1.12
